{"source": "patent US11071790B2", "about": "“Method for efficient delivery of therapeutic molecules in vitro and in vivo” (Massachusetts Eye and Ear Infirmary, priority 2014, dated 2021)", "key": {"[1]": {"tested_on": "glucocorticoid receptor (GR-mCherry) in HeLa cells", "assay": "GR-mCherry translocation assay", "format": "cell-based", "conditions": "1 μM, 30 min", "procedure": "One day prior to transfection 10,000 HeLa cells in 200 μL of DMEM (10% FBS, 1× Pen-Strep) were plated into single wells of a 96-well MATRICAL glass bottom microplate (MGB096-1-2-LG-L) and allowed to adhere overnight. The following day, cells were transfected with GRmCherry using LIPOFECTAMINE® 2000 technologies. Following transfection, cells were allowed to recover overnight in DMEM (+10% FBS). The following day, cells were treated with dexamethasone (Dex) or 1 μM Dex-protein conjugate in the presence or absence of inhibitor diluted into DMEM (without phenol red, +300 nM Hoescht33342). After 30 min, cells were washed twice with 200 μL of HEPES-Krebs-Ringer's (HKR) buffer (140 mM NaCl, 2 mM KCl, 1 mM CaCl2, 1 mM MgCl2, and 10 mM HEPES at pH 7.4), after which 100 μL of HKR buffer was overlaid onto the cells and images were acquired on a Zeiss Axiovert 200M epifluorescence microscope outfitted with Ziess AxiocammRM camera and an EXFO-Excite series 120 Hg arc lamp. The translocation ratio (the ratio of median […] intensity in the nuclear and surrounding regions) for individual cells was measured using CELLPROFILER® as described 36. […]\nAlthough endosomal escape is widely considered to be the major bottleneck of cationic protein delivery (Sahay, G.; et al. Nature Biotechnology 2013, 31, 653), few assays quantify the ability of proteins to escape endosomes on a single-cell basis."}, "[2]": {"tested_on": "cochlear hair cells and supporting cells of Rosa-tdTomato f/f mouse", "assay": "Cre delivery into Rosa-tdTomato mouse cochlea in vivo (tdT labeling)", "conditions": "for tdT-labeled hair cells: near the injection site (base turn of cochlea)", "procedure": "FIGS. 10A and 10B show the in vivo delivery of Cre recombinase to hair cells in the mouse inner ear. FIG. 10A: The scala media (cochlear duct) of P0 floxP-tdTomato mice (n=4) were injected with 0.3 μL of 23 μM (−30)GFP-Cre in 50% RNAiMAX or with RNAiMAX alone (control). […] Red=tdTomato; green=Myo7a; white=Sox2; blue=DAPI. Yellow brackets indicate the outer hair cell (OHC) region. […] Red=tdTomato; green=Esp, white=Sox2; blue=DAPI, Scale bars: 10 μm.\nFIGS. 11A-11E show the high efficiency of protein delivery mediated by aurein in the inner ear in vivo. […] FIG. 11E: In Opti-MEM injected control mice no tdT labeling was detected in any inner ear cells. Scale bars: 10 μm.\nThe use of (−30)-GFP protein and a new positively charged (+36)-GFP protein to carry Cre, (−30)-GFP-Cre and (+36)-GFP-Cre, was tested for injection into mouse cochlea in vivo. The mouse used was Rosa-tdTomato^f/f in which functional Cre activity in the nuclei results in cells being labeled with tdT (red). It was shown that both (−30)-GFP-Cre and (+36)-GFP-Cre injections led to tdT expression in the cochlear hair cells.\nIt was next tested whether Aurein, an antimicrobial peptide, in combination with s-GFP, can serve as an effective carrier to deliver functional proteins into mouse inner ear cell types with high efficiency. (+36)-GFP-aurein-Cre was injected with different concentrations into P3 Rosa-tdT mouse inner ear by cochleostomy in vivo. The tissues were harvested 5 days later for immunolabeling to identify tdT^+ inner ear cell types. […] At 22.5 μM, 58% of OHC and 75% of IHC, as well as 8% of SC were tdT^+. At the highest 50 μM, 96% of OHC, 88% of IHC and 19% of SC were tdT^+. Some spiral ganglion neurons were also tdT^+ at 22.5 and 50 μM (FIGS. 11A-11E and FIG. 12)."}, "BSR.LNL.tdTomato cells [3]": {"tested_on": "BSR.LNL.tdTomato cells", "assay": "primary screen for cytosolic delivery of Cre recombinase (fluorescence image analysis)", "format": "cell-based, hamster", "procedure": "Initial screen of 20 peptide-(+36 GFP)-Cre conjugated proteins. Cytosolic Cre delivery results in recombination and tdTomato expression. The percentage of tdTomato positive cells was determined by fluorescence image analysis. […] Cells were washed and supplanted with full DMEM and incubated for 48 h. Error bars represent the standard deviation of three independent biological replicates.\nBSR.LNL.tdTomato cells were plated at 10,000 cells per well in black 384-well plates (Aurora Biotechnologies). […] Following incubation, the cells were washed three times with PBS+20 U/mL heparin. The cells were incubated a further 48 h in serum-containing media. Cells were fixed in 3% paraformaldehyde and stained with Hoescht 33342 nuclear dye. Images were acquired on an ImageXpress Micro automated microscope (Molecular Devices) using a 4× objective (binning 2, gain 2), with laser- and image-based focusing (offset −130 μm, range ±50 μm, step 25 μm). Images were exposed for 10 ms in the DAPI channel (Hoechst) and 500 ms in the dsRed channel (tdTomato). Image analysis was performed using the cell-scoring module of MetaXpress software (Molecular Devices). All nuclei were detected with a minimum width of 1 pixel, maximum width of 3 pixels, and an intensity of 200 gray levels above background. […] In total, nine images were captured and analyzed per well, and 16 wells were treated with the same fusion protein. The primary screen was completed in biological triplicate.\nBecause Cre recombinase must enter the cell, escape endosomes, enter the nucleus, and catalyze recombination to generate tdTomato fluorescence, this assay reflects the availability of active, non-endosomal recombinase enzyme that reaches the nucleus.\nThe reporter BSR.LNL.tdTomato cells were incubated with 250 nM of each peptide-(+36 GFP)-Cre protein in serum-free media."}, "[4]": {"tested_on": "cochlear hair cells of Rosa26-tdTomato mice", "assay": "in vivo delivery of Cre recombinase into mouse neonatal cochlea (tdTomato recombination)", "procedure": "0.4 μL of 50 μM+36 GFP-Cre or aurein 1.2-+36 GFP-Cre were injected into the scala media. […] Inner hair cells (IHC), outer hair cells (OHC) and supporting cells in the sensory epithelium (SE) were imaged for the presence of tdTomato, which is only expressed following Cre-mediated recombination. Hair cells were labeled with antibodies against the hair-cell marker Myo7a.\nP1-2 Gt(ROSA)26Sor^tm14(CAG-tdTomato)Hze mice were used for aurein 1.2-+36-GFP-Cre and +36-GFP-Cre injection. The Rosa26-tdTomato mice were from the Jackson Laboratory. […] Mice were anesthetized by hypothermia on ice. Cochleostomies were performed by making an incision behind the ear to expose the cochlea. Glass micropipettes held by a micromanipulator were used to deliver the complex into the scala media, which allows access to inner ear hair cells. […]\nTo quantify the number of tdTomato positive cells after aurein 1.2-+36-GFP-Cre and +36-GFP-Cre, we counted the total number of inner and outer hair cells in a region spanning 100 μm in the apex, middle, and base turn of the cochlea.\nAnesthetized postnatal day 2 (P2) mice were injected with 0.4 μL of 50 μM+36 GFP-Cre or aurein 1.2-+36 GFP-Cre solutions in the scala media to access the cochlear cells. […] Both the hair cells (Myo7a+) and supporting cells (Myo7a−) were evaluated for td Tomato signal."}, "BSR.LNL.tdTomato cells [5]": {"tested_on": "BSR.LNL.tdTomato cells", "assay": "ATP-dependent cell viability assay (CELLTITER-GLO)", "conditions": "1 μM, 48 h after treatment", "procedure": "(§1) FIGS. 15A, 15B are graphs showing the efficacy and toxicity of recombinant expression fusions of aurein 1.2 (“E”) and citropin 1.3 (“U”). […] The percentage of tdTomato positive cells was determined by flow cytometry. Protein fusions were delivered at 125 nM, 250 nM, 500 nM, and 1 μM. […] Protein fusions were delivered at 125 nM, 250 nM, 500 nM, and 1 μM. […] Cells were treated with 250 nM protein for 4 h in serum-free media. Cells were washed and supplanted with full DMEM and incubated for 48 h. Error bars represent the standard deviation of three independent biological replicates.\n(§2) Uptake and delivery assays for Cre fusion proteins were performed as previously described (Cronican, J. J.; et al. ACS Chemical Biology 2010, 5, 747). Briefly, proteins were diluted in serum-free DMEM and incubated on the cells in 48-well plates for 4 h at 37° C. Following incubation, the cells were washed three times with PBS+20 U/mL heparin. The cells were incubated a further 48 h in serum-containing media prior to trypsinization and analysis by flow cytometry. […] Toxicity for alanine scan mutational analysis was determined with LIVE/DEAD fixable far-red dead cell stain (Life Technologies) with 635 nm laser and 670/30 nm filter.\nNext, the toxicity of each fusion protein was evaluated at a range of concentrations (125 nM to 1 μM) using an ATP-dependent cell viability assay at 48 h after treatment."}, "BSR.LNL.tdTomato cells [6]": {"tested_on": "BSR.LNL.tdTomato cells", "assay": "Cre delivery assay of recombinant fusion proteins (flow cytometry)", "format": "cell-based, hamster", "conditions": "250 nM, fused to +36 GFP-Cre", "procedure": "as §1\nThe percentage of tdTomato positive cells was determined by flow cytometry. […] Cells were washed and supplanted with full DMEM and incubated for 48 h.\nas §2"}}, "note": "No end group written: not given here."}
{"substance": "Arg8^Dex: dexamethasone-labeled canonical cell permeable peptide Arg8, SEQ ID NO: 102 (RRRRRRRR; also: dexamethasone label, site not given here)", "values": [{"measurement": "nuclear-to-cytoplasm translocation ratio (TR)", "setting": "[1]", "result": 1.63}]}
{"substance": "+36 GFP-Cre: superpositively charged GFP fused to Cre recombinase, SEQ ID NO: 1", "values": [{"measurement": "tdT labeling of cochlear cells", "setting": "[2]; 50 μM", "result": "very few IHC and HC were labeled with tdT"}, {"measurement": "tdT-labeled hair cells", "setting": "[2]", "result": "~30", "unit": "%"}, {"measurement": "recombined cells", "setting": "BSR.LNL.tdTomato cells [3]; 250 nM protein with 100 μM chloroquine (positive control)", "result": 48, "unit": "%"}, {"measurement": "cells expressing tdTomato (recombined cells)", "setting": "BSR.LNL.tdTomato cells [3]; 250 nM protein, 4 h serum-free, 48 h", "result": 4.5, "unit": "%"}, {"measurement": "Cre-mediated recombination in inner hair cells (IHC)", "setting": "[4]; apex, 50 μM", "result": 4.4, "unit": "%"}, {"measurement": "viable cells", "setting": "BSR.LNL.tdTomato cells [5]", "result": 85, "unit": "%"}]}
{"substance": "GLFDIIKKVASVIGGL [citropin 1.3]", "values": [{"measurement": "level of recombination in the primary screen", "setting": "BSR.LNL.tdTomato cells [3]; 250 nM sortase conjugate of +36 GFP-Cre", "result": "moderate level of recombination"}]}
{"substance": "(−30)-GFP-Cre: negatively supercharged GFP fused to Cre recombinase, SEQ ID NO: 4", "values": [{"measurement": "tdT-labeled hair cells", "setting": "[2]", "result": "~30", "unit": "%"}, {"measurement": "stereocilia of tdTomato-positive outer hair cells", "setting": "[2]; ten days after delivery, 23 μM in 50% RNAiMAX", "result": "intact espin (Esp)-expressing stereocilia of tdTomato-positive outer hair cells were present"}]}
{"substance": "GLFDIIKRIAESF [K8R]", "values": [{"measurement": "overall recombination efficiency of aurein 1.2 variants", "setting": "BSR.LNL.tdTomato cells [6]", "result": "potentially improved overall recombination efficiency"}]}
{"substance": "GLFDIIKKIAEAF [S12A]", "values": [{"measurement": "overall recombination efficiency of aurein 1.2 variants", "setting": "BSR.LNL.tdTomato cells [6]", "result": "potentially improved overall recombination efficiency"}]}
{"substance": "GLFDIIKKIAESF (listed as Litoria aurea) [aurein 1.2]", "values": [{"measurement": "potency of Cre delivery into cochlear hair cells when fused with aurein 1.2 versus absence of the peptide", "setting": "[4]; live mice", "result": "> 20", "unit": "fold"}]}
